From patent US11453683B1, “KRas G12D inhibitors” (Mirati Therapeutics, Inc., priority 2019, dated 2022) come the findings set out here.

The term IC50 denotes the midpoint of a concentration-inhibition curve. The low end stands for higher potency, the high end for lower potency.

Structures can show the parent of a compound that is named as a salt.

The test system of this experiment is KRas G12D-mediated phosphorylation of ERK. In words: Inhibition of KRas G12D-mediated phosphorylation of ERK in AGS cells. The format is cell-based. The conditions noted are these: Homo sapiens; AGS cells expressing G12D, 3 hours, phospho-ERK normalized to GAPDH. Summed up:
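In-cell Western: p-ERK Thr202/Tyr204 signal over GAPDH, as % of DMSO control, with IC50 from a 4-parameter curve. AGS cells seeded 40,000/well for 12-14 h, exposed to compound 3 h at 0.5% DMSO final, then formaldehyde-fixed and methanol-permeabilized.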
For the compound `CCc1c(F)ccc2cc(O)cc(-c3ncc4c(N5C[C@H]6CC[C@@H](C5)N6)nc(OCC56CCCN5CCC6)nc4c3F)c12` [Example 314, 4-(4-((1R,5S)-3,8-diazabicyclo[3.2.1]octan-3-yl)-8-fluoro-2-((hexahydro-1H-pyrrolizin-7a-yl)methoxy)pyrido[4,3-d]pyrimidin-7-yl)-5-ethyl-6-fluoronaphthalen-2-ol], the concentration for half-maximal inhibition (IC50) turned out to be 0.0037 µM.

As for `Cc1ccc2[nH]ncc2c1-c1ncc2c(N3CC4CCC(C3)N4)nc(OCC34CCCN3C[C@H](F)C4)nc2c1F` (mixture of isomers) [Example 331, 4-((1R,5S)-3,8-diazabicyclo[3.2.1]octan-3-yl)-8-fluoro-2-((2-fluorotetrahydro-1H-pyrrolizin-7a(5H)-yl)methoxy)-7-(5-methyl-1H-indazol-4-yl)pyrido[4,3-d]pyrimidine], half-maximal inhibition (IC50) was put at 10.8 µM.

Consider `CO[C@@H]1CN2CCC[C@]2(COc2nc(N3C[C@H]4CC[C@@H](C3)N4)c3cnc(-c4cccc5cccc(Cl)c45)c(F)c3n2)C1` [Example 219, 4-((1R,5S)-3,8-diazabicyclo[3.2.1]octan-3-yl)-7-(8-chloronaphthalen-1-yl)-8-fluoro-2-((2-methoxytetrahydro-1H-pyrrolizin-7a(5H)-yl)methoxy)pyrido[4,3-d]pyrimidine bis-hydrochloride], for which the IC50 is 2.03 µM. Against the preceding compound, the IC50 is about 5.3-fold lower.

On to `C[C@H]1C[C@@H]1c1c(Cl)cc(O)cc1-c1ncc2c(N3C[C@H]4CC[C@@H](C3)N4)nc(OC[C@@]34CCCN3C[C@H](F)C4)nc2c1F` [Example 451, 3-(4-((1R,5S)-3,8-diazabicyclo[3.2.1]octan-3-yl)-8-fluoro-2-(((2R,7aS)-2-fluorotetrahydro-1H-pyrrolizin-7a(5H)-yl)methoxy)pyrido[4,3-d]pyrimidin-7-yl)-5-chloro-4-((1S,2S)-2-methylcyclopropyl)phenol], for which the IC50 is 0.0783 µM.

On to `Fc1c(-c2cccc(Cl)c2C(F)(F)F)ncc2c(N3C[C@H]4CC[C@@H](C3)N4)nc(OCC34CCCN3CCC4)nc12` [Example 328, 4-((1R,5S)-3,8-diazabicyclo[3.2.1]octan-3-yl)-7-(3-chloro-2-(trifluoromethyl)phenyl)-8-fluoro-2-((tetrahydro-1H-pyrrolizin-7a(5H)-yl)methoxy)pyrido[4,3-d]pyrimidine], for which inhibition was half-maximal at 0.897 µM (IC50).

As to `CS(=O)(=O)NC[C@H]1CC[C@@]2(COc3nc(N4C[C@H]5CC[C@@H](C4)N5)c4cnc(-c5cccc6cccc(Cl)c56)c(F)c4n3)CCCN12` [Example 420, N-(((3R,7aR)-7a-(((4-((1R,5S)-3,8-diazabicyclo[3.2.1]octan-3-yl)-7-(8-chloronaphthalen-1-yl)-8-fluoropyrido[4,3-d]pyrimidin-2-yl)oxy)methyl)hexahydro-1H-pyrrolizin-3-yl)methyl)methanesulfonamide], the IC50 was determined as 7.82 µM.

`Fc1ccc2cccc(-c3ncc4c(N5C[C@H]6CC[C@@H](C5)N6)nc(OCC56CCCN5CCC6)nc4c3F)c2c1Cl` [Example 98, 4-((1R,5S)-3,8-diazabicyclo[3.2.1]octan-3-yl)-7-(8-chloro-7-fluoronaphthalen-1-yl)-8-fluoro-2-((tetrahydro-1H-pyrrolizin-7a(5H)-yl)methoxy)pyrido[4,3-d]pyrimidine bis(2,2,2-trifluoroacetate)] gave a concentration for half-maximal inhibition (IC50) of 0.389 µM. Compared with the last compound, the IC50 is about 20-fold lower.

Turning to `Cc1cccnc1CCOc1nc(N2C[C@H]3CC[C@@H](C2)N3)c2cnc(-c3cc(O)cc4ccccc34)c(F)c2n1` [Example 6, 4-(4-((1R,5S)-3,8-diazabicyclo[3.2.1]octan-3-yl)-8-fluoro-2-(2-(3-methylpyridin-2-yl)ethoxy)pyrido[4,3-d]pyrimidin-7-yl)naphthalen-2-ol], the IC50 worked out at 11.5 µM.

As for `CC(=O)N1CCC(Oc2nc(N3C[C@H]4CC[C@@H](C3)N4)c3cnc(-c4cc(O)cc5ccccc45)c(F)c3n2)CC1` [Example 78, 1-(4-((4-((1R,5S)-3,8-diazabicyclo[3.2.1]octan-3-yl)-8-fluoro-7-(3-hydroxynaphthalen-1-yl)pyrido[4,3-d]pyrimidin-2-yl)oxy)piperidin-1-yl)ethan-1-one], the IC50 is above 16.7 µM.

`CN1CCC[C@H]1COc1nc(N2CC3CCC(C)(C2)N3)c2cnc(-c3cc(O)cc4ccccc34)c(F)c2n1` (stereo partly drawn) [Example 156, 4-(8-fluoro-4-(1-methyl-3,8-diazabicyclo[3.2.1]octan-3-yl)-2-(((S)-1-methylpyrrolidin-2-yl)methoxy)pyrido[4,3-d]pyrimidin-7-yl)naphthalen-2-ol bis(2,2,2-trifluoroacetate)] returned an IC50 of 1.79 µM.

`Oc1cc(-c2ncc3c(N4CC5CCC(C4)N5)nc(OCC45CCCN4C(CF)CC5)nc3c2F)c2ccccc2c1` (mixture of isomers) [Example 384, 4-(4-((1R,5S)-3,8-diazabicyclo[3.2.1]octan-3-yl)-8-fluoro-2-((3-(fluoromethyl)tetrahydro-1H-pyrrolizin-7a(5H)-yl)methoxy)pyrido[4,3-d]pyrimidin-7-yl)naphthalen-2-ol (mixture of isomers)] yielded an IC50 of 0.398 µM.

Consider `Fc1c(-c2cccc3cccc(Cl)c23)ncc2c(N3C[C@H]4CC[C@@H](C3)N4)nc(OCC34CCCN3CCC4)nc12` [Example 45, 4-((1R,5S)-3,8-diazabicyclo[3.2.1]octan-3-yl)-7-(8-chloronaphthalen-1-yl)-8-fluoro-2-((tetrahydro-1H-pyrrolizin-7a(5H)-yl)methoxy)pyrido[4,3-d]pyrimidine], for which the IC50 stood at 0.84 µM.

The compound `Fc1c(-c2cccc3ccccc23)ncc2c(N3C[C@H]4CC[C@@H](C3)N4)nc(OCC34CCCN3CCC4)nc12` [Example 186, 4-((1R,5S)-3,8-diazabicyclo[3.2.1]octan-3-yl)-8-fluoro-7-(naphthalen-1-yl)-2-((tetrahydro-1H-pyrrolizin-7a(5H)-yl)methoxy)pyrido[4,3-d]pyrimidine] displayed an IC50 of 3.38 µM.

`[O-][S+]1CCC(Oc2nc(N3C[C@H]4CC[C@@H](C3)N4)c3cnc(-c4cc(O)cc5ccccc45)c(F)c3n2)CC1` (stereo partly drawn) [Example 82, 4-((4-((1R,5S)-3,8-diazabicyclo[3.2.1]octan-3-yl)-8-fluoro-7-(3-hydroxynaphthalen-1-yl)pyrido[4,3-d]pyrimidin-2-yl)oxy)tetrahydro-2H-thiopyran 1-oxide] showed an IC50 above 16.7 µM.

Turning to `CC1CCc2cccc(-c3ncc4c(N5CC6CCC(C5)N6)nc(OC[C@@H]5CCCN5C)nc4c3F)c21` (stereo partly drawn) [Example 174, 4-((1R,5S)-3,8-diazabicyclo[3.2.1]octan-3-yl)-8-fluoro-7-(3-methyl-2,3-dihydro-1H-inden-4-yl)-2-(((S)-1-methylpyrrolidin-2-yl)methoxy)pyrido[4,3-d]pyrimidine], the IC50 is 12.8 µM. That is a double-digit micromolar value.

On to `CO[C@@H]1C[C@@H]2CN(c3nc(OC[C@@]45CCCN4C[C@H](F)C5)nc4c(F)c(-c5cccc6cccc(Cl)c56)ncc34)C[C@H]1N2` [Example 397, 7-(8-chloronaphthalen-1-yl)-8-fluoro-2-((2-fluorotetrahydro-1H-pyrrolizin-7a(5H)-yl)methoxy)-4-((1R,5R,6R)-6-methoxy-3,8-diazabicyclo[3.2.1]octan-3-yl)pyrido[4,3-d]pyrimidine], for which the IC50 is above 16.7 µM.

On to `CN1C[C@H](NC(=O)c2cccc(S(=O)(=O)F)c2)C[C@H]1COc1nc(N2C[C@H]3CC[C@@H](C2)N3)c2cnc(-c3cccc4cccc(Cl)c34)c(F)c2n1` [Example 211, 3-(((3R,5S)-5-(((4-((1R,5S)-3,8-diazabicyclo[3.2.1]octan-3-yl)-7-(8-chloronaphthalen-1-yl)-8-fluoropyrido[4,3-d]pyrimidin-2-yl)oxy)methyl)-1-methylpyrrolidin-3-yl)carbamoyl)benzenesulfonyl fluoride tris(2,2,2-trifluoroacetate)], for which the IC50 worked out at 13.5 µM.

For `Fc1c(-c2cccc3cccc(Cl)c23)ncc2c(N3C[C@H]4CC[C@@H](C3)N4)nc(OCC34CC(F)CN3CC(F)C4)nc12` (stereo partly drawn) [Example 425, 4-((1R,5S)-3,8-diazabicyclo[3.2.1]octan-3-yl)-7-(8-chloronaphthalen-1-yl)-2-((2,6-difluorohexahydro-1H-pyrrolizin-7a-yl)methoxy)-8-fluoropyrido[4,3-d]pyrimidine], half-maximal inhibition (IC50) was put at 5.41 µM. Compared with the last compound, the IC50 is about 2.5-fold lower.

Turning to `Fc1c(-c2cccc3cccc(C(F)(F)F)c23)ncc2c(N3C[C@H]4CC[C@@H](C3)N4)nc(OC[C@@]34CCCN3C[C@H](F)C4)nc12` [Example 419, 4-((1R,5S)-3,8-diazabicyclo[3.2.1]octan-3-yl)-8-fluoro-2-(((2R,7aS)-2-fluorotetrahydro-1H-pyrrolizin-7a(5H)-yl)methoxy)-7-(8-(trifluoromethyl)naphthalen-1-yl)pyrido[4,3-d]pyrimidine], the IC50 amounted to 2.78 µM.

`CN1CCC[C@H]1COc1nc(N2C[C@H]3CC[C@@H](C2)N3)c2cnc(-c3cc(O)c(Br)c4ccccc34)c(F)c2n1` [Example 14, 4-(4-((1R,5S)-3,8-diazabicyclo[3.2.1]octan-3-yl)-8-fluoro-2-(((S)-1-methylpyrrolidin-2-yl)methoxy)pyrido[4,3-d]pyrimidin-7-yl)-1-bromonaphthalen-2-ol] returned an IC50 of 4.84 µM.

As for `Fc1c(-c2cccc3c2CC2CC32)ncc2c(N3CC4CCC(C3)N4)nc(OC[C@@]34CCCN3C[C@H](F)C4)nc12` (stereo partly drawn) [Example 438, 4-(3,8-diazabicyclo[3.2.1]octan-3-yl)-8-fluoro-2-(((2R,7aS)-2-fluorotetrahydro-1H-pyrrolizin-7a(5H)-yl)methoxy)-7-(1,1a,6,6a-tetrahydrocyclopropa[a]inden-5-yl)pyrido[4,3-d]pyrimidine], the IC50 was determined as 1.63 µM.

In turn, `Cn1cncc1CCOc1nc(N2C[C@H]3CC[C@@H](C2)N3)c2cnc(-c3cc(O)cc4ccccc34)c(F)c2n1` [Example 110, 4-(4-((1R,5S)-3,8-diazabicyclo[3.2.1]octan-3-yl)-8-fluoro-2-(2-(1-methyl-1H-imidazol-5-yl)ethoxy)pyrido[4,3-d]pyrimidin-7-yl)naphthalen-2-ol] had an IC50 above 16.7 µM.

`Oc1cc(-c2ncc3c(N4C[C@H]5CC[C@@H](C4)N5)nc(OCCC(F)(F)F)nc3c2F)c2c(Cl)cccc2c1` [Example 393, 4-(4-((1R,5S)-3,8-diazabicyclo[3.2.1]octan-3-yl)-8-fluoro-2-(3,3,3-trifluoropropoxy)pyrido[4,3-d]pyrimidin-7-yl)-5-chloronaphthalen-2-ol]: the IC50 amounted to 7.58 µM.
